Test results taken from patent US20120114583A1, “USE OF DIHYDROQUERCETIN AND AT LEAST ONE AMINO ACID TO POSITIVELY INFLUENCE THE NATURAL PIGMENTATION PROCESS” (Henkel AG & Co. KGaA, priority 2009, published 2012).

Experiments:
Format in all cases: cell-based
[1] = tested on: MCR1 (melanocortin receptor 1); test: Differential gene expression of MCR1 by quantitative RT-PCR in organotypical hair follicle cell cultures; conditions: for MCR1 expression, Mean: 48 h, dermal papilla cell 3D cultures, untreated control = 1
Excerpt: (§1) The ligands involved in melanogenesis, such as SCF or alpha-MSH (melanocyte stimulating hormone alpha) bind to different receptors, through which the corresponding signal is transmitted into the cell interior. The receptor for SCF is ckit, the receptor for alpha-MSH is MCR-1 (melanocortin receptor 1). Substances that bring about a change in the expression of MCR-1 and/or ckit can influence melanogenesis. If an induction (up-regulation or stimulation) of the gene expression of the corresponding receptors occurs, melanogenesis is assumed to be stimulated. Differential gene expression was determined by means of quantitative RT-PCR. After preparing three-dimensional organotypical hair follicle cell cultures from dermal papilla cells on microcarriers, they were incubated for 48 h with dihydroquercetin in two different concentrations. In order to perform PCR the RNA was first isolated from the organotypical cell cultures with the aid of an RNeasy Mini Kit from Qiagen and transcribed into cDNA by reverse transcription. In the subsequent PCR reaction, which is performed for each gene with the aid of gene-specific primers and which serves to amplify the required gene sections, the formation of PCR products is detected online via a fluorescence signal. The fluorescence signal is proportional to the amount of PCR product formed. The stronger the expression of a particular gene, the greater the amount of PCR product formed and the higher the fluorescence signal. To quantify the gene expression the untreated control is set to 1 and the expression of the gene to be determined is referenced thereto (x-times expression). […] Values greater than or equal to the 1.5 times expression or less than or equal to the 0.7 times expression of the untreated control are classed as being expressed in a tangentially differential manner.

[2] = tested on: gp100; test: Differential gene expression of gp100 by quantitative RT-PCR in organotypical hair follicle cell cultures; conditions: for gp100 expression, Mean: 48 h, dermal papilla cell 3D cultures, untreated control = 1
Experimental: Gp 100 is a protein that occurs in the membrane of melanosomes and stabilizes them. Since more melanin is produced in the cells following application of substances that positively influence melanogenesis, an increase in the melanosomes necessary for transport also occurs. A substance that induces the gene expression of gp100 is therefore a pigmentation-stimulating active ingredient. Differential gene expression was determined by means of quantitative RT-PCR. After preparing three-dimensional organotypical hair follicle cell cultures from dermal papilla cells on microcarriers, they were incubated for 48 h with dihydroquercetin in two different concentrations. In order to perform PCR the RNA was first isolated from the organotypical cell cultures with the aid of an RNeasy Mini Kit from Qiagen and transcribed into cDNA by reverse transcription. In the subsequent PCR reaction, which is performed for each gene with the aid of gene-specific primers and which serves to amplify the required gene sections, the formation of PCR products is detected online via a fluorescence signal. The fluorescence signal is proportional to the amount of PCR product formed. The stronger the expression of a particular gene, the greater the amount of PCR product formed and the higher the fluorescence signal. To quantify the gene expression the untreated control is set to 1 and the expression of the gene to be determined is referenced thereto (x-times expression). […] Values greater than or equal to the 1.5 times expression or less than or equal to the 0.7 times expression of the untreated control are classed as being expressed in a tangentially differential manner.

[3] = tested on: ckit; test: Differential gene expression of ckit by quantitative RT-PCR in organotypical hair follicle cell cultures; conditions: for ckit expression, Mean: 48 h, dermal papilla cell 3D cultures, untreated control = 1
Excerpt: as §1

[4] = tested on: hair follicle equivalents; test: Melanin content in hair follicle equivalents; conditions: for Melanin content d4 Mean: day 4; for Melanin content d7 Mean: day 7, untreated control 181
Experimental: In order to assess the melanin content, three-dimensional organotypical hair follicle cell cultures prepared from dermal papilla cells, hair follicle melanocytes and outer root sheath keratinocytes were treated with dihydroquercetin (10 μM and 100 μM) for 7 days. Untreated cell cultures served as a control. After 4 and 7 days respectively, the hair follicle equivalents were homogenized and the melanin extracted with NaOH (1M)+10% DMSO at 100° C. for 45 min. Aliquots of the specimens were then transferred to a 96-well plate and the extinction was measured at 492 nm. The rise in the melanin content from day 0 to day 7 was evaluated. All values were referenced to the untreated control on day 7 (=100%).

O=C1c2c(O)cc(O)cc2OC(c2ccc(O)c(O)c2)C1O (stereo not drawn) [Dihydroquercetin, 3,3′,4′,5,7-pentahydroxyflavanone]
MCR1 expression, Mean ([1]; 10 μM): 2.56 x-times expression
MCR1 expression (in words) ([1]; 10 μM, significantly differential = >= 1.8 times or <= 0.5 times untreated control): expressed in a significantly differential manner
MCR1 expression (in words) ([1]; 100 μM): induced
MCR1 expression, Mean ([1]; 100 μM): 5.17 x-times expression
gp100 expression, Mean ([2]; 10 μM): 0.89 x-times expression
gp100 expression (in words) ([2]; 100 μM): induced
gp100 expression, Mean ([2]; 100 μM): 3.48 x-times expression
ckit expression, Mean ([3]; 10 μM): 1.32 x-times expression
ckit expression (in words) ([3]; 100 μM): induced
ckit expression, Mean ([3]; 100 μM): 3.55 x-times expression
Melanin content d4 Mean ([4]; 10 μM): 100%
Melanin content d7 Mean ([4]; 10 μM): 254%
Melanin content d4 Mean ([4]; 100 μM): 100%
Melanin content d7 Mean ([4]; 100 μM): 161%
melanin synthesis in comparison to the control (in words) ([4]; both concentration levels tested (10 μM and 100 μM)): increased markedly
